Data as given in ChEMBL document CHEMBL3608219, “New geranylated flavanones from the fruits of Paulownia catalpifolia Gong Tong with their anti-proliferative activity on lung cancer cells A549” (Bioorg Med Chem Lett, 2015).

What was measured:
A549 [1] = test: Cell cycle arrest in human A549 cells assessed as accumulation at S phase at 10 uM after 24 hrs by flow cytometry analysis (reference value: 16.23 +/- 1.73%); type: functional
A549 [2] = test: Cell cycle arrest in human A549 cells assessed as accumulation at G2/M phase at 10 uM after 24 hrs by flow cytometry analysis (reference value: 14.18 +/- 1.03%); type: functional
A549 [3] = test: Cell cycle arrest in human A549 cells assessed as accumulation at G1 phase at 10 uM after 24 hrs by flow cytometry analysis (reference value: 68.78 +/- 2.43%); type: functional
A549 [4] = test: Antiproliferative activity against human A549 cells by MTT assay; type: functional, cell-based

SMILES	Activity (A549 [1])	Activity (A549 [2])	Activity (A549 [3])	IC50 (A549 [4])
CC(C)=CCC/C(C)=C\Cc1c(O)c(-c2c(O)c(C/C=C(/C)CCC=C(C)C)c3c(c2O)C(=O)CC(c2ccc(O)c(O)c2)O3)c(O)c2c1OC(c1ccc(O)c(O)c1)CC2=O (configuration not stated)	5.05%	5.05%	88.88%	8.9 µM
COc1cc(C2CC(=O)c3c(O)cc(O)c(C/C=C(\C)CCCC(C)(C)O)c3O2)cc(O)c1O (configuration not stated)	–	–	–	23.7 µM
COc1cc(C2CC(=O)c3c(cc(O)c(C/C=C(\C)CCCC(C)(C)O)c3O)O2)cc(O)c1O (configuration not stated)	–	–	–	22.1 µM
C=C1C(=O)[C@]23[C@H](O)[C@H]1CC[C@H]2[C@@]12CO[C@]3(O)[C@@H](O)[C@@H]1C(C)(C)CC[C@@H]2O [ORIDONIN]	–	–	–	18.7 µM
